Assay results published in US20260234157A1, “COMPOUND AND METHOD FOR TARGETED DEGRADATION OF ANDROGEN RECEPTOR” (Gan & Lee Pharmaceuticals Co., Ltd., priority 2023, published 2026).
Substitutions are numbered along the chain they refer to. Like-named read-outs stand apart in the source and are kept apart here.

Key:
Type in all cases: cell-based
[1] = biological target: T1, AR protein (Homo sapiens, UniProt P10275, T878A); assay: Degradation of AR protein in LNCaP cells (Western blot); conditions: LNCaP cells, 8 hours, Western blot grayscale, GAPDH internal reference; for inhibition at 0.01 µM: compound 10 nM, read-out: Degradation rates of the AR protein in LNCaP cells, 10 nM (%); for inhibition at 0.1 µM: compound 100 nM, read-out: Degradation rates of the AR protein in LNCaP cells, 100 nM (%)
T1 construct: degradation activity of the compounds disclosed in the present disclosure on AR protein in LNCaP cells; host or cells: LNCaP FGC
T1 sequence (P10275 1-920 T878A): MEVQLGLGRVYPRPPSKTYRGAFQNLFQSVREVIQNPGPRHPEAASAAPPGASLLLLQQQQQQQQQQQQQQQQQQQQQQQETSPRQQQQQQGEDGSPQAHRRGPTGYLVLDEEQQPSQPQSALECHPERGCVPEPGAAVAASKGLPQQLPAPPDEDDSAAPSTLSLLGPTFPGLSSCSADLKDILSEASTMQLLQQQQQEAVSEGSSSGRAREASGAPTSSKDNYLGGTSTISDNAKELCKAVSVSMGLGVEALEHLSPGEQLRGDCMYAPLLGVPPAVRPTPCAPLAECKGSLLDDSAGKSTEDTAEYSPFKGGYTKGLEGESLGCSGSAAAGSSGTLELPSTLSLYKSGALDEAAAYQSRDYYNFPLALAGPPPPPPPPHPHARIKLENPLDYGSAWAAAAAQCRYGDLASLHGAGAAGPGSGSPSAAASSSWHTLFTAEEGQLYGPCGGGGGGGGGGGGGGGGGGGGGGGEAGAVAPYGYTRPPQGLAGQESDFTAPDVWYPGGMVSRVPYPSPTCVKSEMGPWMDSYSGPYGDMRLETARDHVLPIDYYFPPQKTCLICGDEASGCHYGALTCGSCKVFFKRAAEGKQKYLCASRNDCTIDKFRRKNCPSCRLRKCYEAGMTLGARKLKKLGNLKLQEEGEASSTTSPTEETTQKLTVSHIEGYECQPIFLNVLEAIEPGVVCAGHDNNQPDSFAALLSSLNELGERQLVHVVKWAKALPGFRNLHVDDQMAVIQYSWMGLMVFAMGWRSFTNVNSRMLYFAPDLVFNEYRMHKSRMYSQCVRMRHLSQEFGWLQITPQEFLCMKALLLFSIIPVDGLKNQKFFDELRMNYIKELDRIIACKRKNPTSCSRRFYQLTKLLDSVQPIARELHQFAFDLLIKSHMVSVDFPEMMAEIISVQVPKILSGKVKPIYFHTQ
Outline: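 Percent AR degradation was derived from GAPDH-normalised Western blot band intensities (infrared detection) in LNCaP lysates.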

[2] = biological target: T2, AR protein (Homo sapiens, UniProt P10275); assay: Degradation of AR protein in VCaP cells (Western blot); conditions: 8 hours; for inhibition at 0.01 µM: compound at 10 nM, read-out: Degradation rate of the AR protein in VCaP cells, 10 nM (%); for inhibition at 0.1 µM: compound at 100 nM, read-out: Degradation rate of the AR protein in VCaP cells, 100 nM (%)
T2 construct: degradation activity of the compounds disclosed in the present disclosure on AR protein in VCaP cells; host or cells: VCaP
T2 sequence (P10275 1-920): T1 sequence (P10275 1-920 T878A) with A878T
Outline: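 Western blot readout: AR band grayscale normalised to GAPDH, used to derive degradation rate. Lysates came from VCaP cells exposed to compound for 8 h, with solvent controls run in parallel.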

[3] = test system: LNCaP FGC cells; assay: Inhibition of proliferation of LNCaP cells (WST-8); conditions: Homo sapiens, LNCaP, 96 h, read-out: IC50 for inhibiting the proliferation of LNCaP cells
Method: The cells were cultured in a cell culture incubator with 5% CO2 at 37° C. overnight. […] On the sixth day, 96 well plates were taken out, and 20 μL of WST-8 (Beytime, C0040) reagent was added to each well.

[4] = test system: VCaP cells; assay: Inhibition of proliferation of VCaP cells (WST-8); conditions: Homo sapiens, read-out: IC50 for inhibiting the proliferation of VCaP cells
Outline: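 Proliferation was read by WST-8 on day nine. Cells were VCaP FGC, seeded at 15000 cells per well in 10% FBS DMEM and kept at 37° C with 5% CO2.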

[5] = LNCaP FGC cells, 96 hours, WST-8 absorbance at 450 nm
[6] = VCaP cells, 168 hours, WST-8 absorbance at 450 nm

| Structure (SMILES) | inhibition at 0.01 µM [1] [%] | inhibition at 0.1 µM [1] [%] | inhibition at 0.01 µM [2] [%] | inhibition at 0.1 µM [2] [%] | IC50 [3, 5] [nM] | IC50 [4, 6] [nM] | IC50 [3] [nM] | IC50 ([4]; VCaP, 168 h) [nM] |
| --- | --- | --- | --- | --- | --- | --- | --- | --- |
| N#Cc1ccc(O[C@H]2CC[C@H](NC(=O)c3ccc(N4CCC5(CCC(N6CCC7(CC6)COc6ccc8c(c6C7)C(=O)N(C6CCC(=O)NC6=O)C8)CC5)CC4)nn3)CC2)cc1Cl (stereo partly drawn) [Compound 149] | 1 | 1 | -4 | 26 | 3730 | 3170 | – | – |
| COc1cc(O[C@H]2CC[C@H](NC(=O)c3ccc(N4CCC(C#N)(CN5CCC6(CC5)COc5c6ccc6c5C(=O)N(C5CCC(=O)NC5=O)C6=O)CC4)nn3)CC2)ccc1C#N (stereo partly drawn) [Compound 229] | 49 | 59 | 33 | 73 | 330 | 15 | – | – |
| N#Cc1ccc(O[C@H]2CC[C@H](NC(=O)c3ccc(N4CCC(CC5CC5)(CN5CCC6(CC5)COc5c6ccc6c5CN(C5CCC(=O)NC5=O)C6=O)CC4)nn3)CC2)cc1Cl (stereo partly drawn) [Compound 211] | 45 | 28 | -4 | 46 | – | – | 55 | 2.5 |
| N#Cc1ccc(O[C@H]2CC[C@H](NC(=O)c3ccc(N4CC(CN5CCC6(CC5)COc5cc7c(cc5C6)C(=O)N(C5CCC(=O)NC5=O)C7=O)C4)nn3)CC2)cc1Cl (stereo partly drawn) [Compound 59] | 43 | 66 | 86 | 87 | 400 | 110 | – | – |
| N#Cc1ccc(O[C@H]2CC[C@H](NC(=O)c3ccc(N4CCC5(CCc6cc7c(cc6O5)C(=O)N(C5CCC(=O)NC5=O)C7=O)CC4)nn3)CC2)cc1Cl (stereo partly drawn) [Compound 28] | 58 | 60 | 9 | 35 | 3900 | 6200 | – | – |
| N#Cc1ccc(O[C@H]2CC[C@H](NC(=O)c3ccc(N4CCC(O)(CN5CCC6(CC5)COc5c6ccc6c5C(=O)N(C5CCC(=O)NC5=O)C6=O)CC4)nn3)CC2)cc1C(F)(F)F (stereo partly drawn) [Compound 214] | 40 | 68 | 7 | 63 | 3780 | 48 | – | – |
| N#Cc1ccc(O[C@H]2CC[C@H](NC(=O)c3ccc(N4CC[C@H](CN5CCC6(CC5)COc5cc7c(cc5C6)C(=O)N(C5CCC(=O)NC5=O)C7=O)C4)nn3)CC2)cc1Cl (stereo partly drawn) [Compound 74] | 39 | 79 | 47 | 65 | 600 | 600 | – | – |
| COc1cc(O[C@H]2C(C)(C)[C@H](NC(=O)c3ccc(N4CCC(C)(CN5CCC6(CCc7ccc8c(c7O6)CN(C6CCC(=O)NC6=O)C8=O)CC5)CC4)cc3)C2(C)C)ccc1C#N (stereo partly drawn) [Compound 283] | 53 | 66 | 2 | 45 | 97600 | 13 | – | – |
| N#Cc1ccc(O[C@H]2CC[C@H](NC(=O)c3ccc(N4CCC5(CC4)COc4cc6c(cc4C5)C(=O)N(C4CCC(=O)NC4=O)C6=O)nn3)CC2)cc1Cl (stereo partly drawn) [Compound 60] | 41 | 64 | 41 | 64 | 2400 | 4400 | – | – |
| COc1cc(O[C@H]2C(C)(C)[C@H](NC(=O)c3ccc(N4CCC(F)(CN5CCC6(CC5)COc5c6ccc6c5C(=O)N(C5CCC(=O)NC5=O)C6=O)CC4)cc3)C2(C)C)ccc1C#N (stereo partly drawn) [Compound 275] | 30 | 54 | 7 | 51 | 240 | 20 | – | – |
| CCOC1(CN2CCC3(CC2)COc2c3ccc3c2C(=O)N(C2CCC(=O)NC2=O)C3=O)CCN(c2ccc(C(=O)N[C@H]3C(C)(C)[C@H](Oc4ccc(C#N)c(OC)c4)C3(C)C)cc2)CC1 (stereo partly drawn) [Compound 295] | 1 | 44 | -4 | 37 | 370 | 20 | – | – |
| CCOC1(CN2CCC3(CC2)COc2c3ccc3c2C(=O)N(C2CCC(=O)NC2=O)C3=O)CCN(c2ccc(C(=O)N[C@H]3CC[C@H](Oc4ccc(C#N)c(OC)c4)CC3)nn2)CC1 (stereo partly drawn) [Compound 243] | 24 | 58 | 16 | 68 | 120 | 18 | – | – |
| COc1cc(OC2CCC(NC(=O)c3cnc(N4CCC(C)(CN5CCC6(CC5)COc5c6ccc6c5C(=O)N(C5CCC(=O)NC5=O)C6=O)CC4)nc3)CC2)ccc1C#N (stereo not drawn) [Compound 246] | 17 | 43 | -19 | 61 | 870 | 120 | – | – |
| COc1cc(O[C@H]2C(C)(C)[C@H](NC(=O)c3ccc(N4CCC(F)(CN5CCC6(CCc7cc8c(cc7O6)C(=O)N(C6CCC(=O)NC6=O)C8=O)CC5)CC4)cc3)C2(C)C)ccc1C#N (stereo partly drawn) [Compound 270] | 47 | 40 | 9 | 28 | 72000 | 110 | – | – |
| N#Cc1ccc(O[C@H]2CC[C@H](NC(=O)c3ccc(N4CC(N5CCC6(CC5)COc5c6ccc6c5C(=O)N(C5CCC(=O)NC5=O)C6=O)C4)nn3)CC2)cc1Cl (stereo partly drawn) [Compound 142] | 29 | 52 | 26 | 74 | > 90000 | 15100 | – | – |
